Peptide text beside a SMILES is read from it. * marks the point of attachment. Cbz = O=C(OCc1ccccc1)*
Tests used:
striatal mGluR5 LTD [1] = assay: Long-term depression in cortico-striatal synapse, acute brain slices of WT mice; format: cell-based; details: pre-incubation 5 nM, 1 hr
Method: (§1) To directly test these predictions, whole-cell electrophysiology of striatal projection neurons was performed in acute brain slices to induce long-term depression in the presence of eIF2-alpha pathway-modulating drugs. Acute horizontal brain slices from the progeny of heterozygous ΔE Torsin1a knockin x homozygous Drd1a-tdTomato mice (age P15-21) were prepared largely as described in (Trusel et al., 2015, Cell Rep. 13, 1353-65). LTD was induced as in Trusel et al., 2015, with modifications.
(§2) Heterozygous delGAG Torsin1a knockin mice (courtesy of Dr. W. Dauer, University of Michigan) were crossed with homozygous Drd1a-tdTomato mice (Jackson Labs) and the progeny was used at postnatal day 15-21 for experiments. […]
(§3) Single slices were transferred to a recording chamber and superfused continuously with ACSF containing 50 μM picrotoxin at 32° C. and 3-4 mL/min. […] Evoked excitatory postsynaptic potentials (EPSPs) were recorded in the dorsolateral striatum, while stimulating every 30 seconds with a concentric bipolar electrode (FHC) in cortical layer V (see Trusel et al., Cell Reports, 2015). […] Baseline EPSPs were recorded for at least 10 min or until a stable baseline was reached. Data were acquired by pClamp v10 and analyzed using Clampfit v10.4, Origin v8.0, and GraphPad Prism v6.

WT Torsin1a localization = assay: Torsin1a localization assay in WT Torsin1a-expressing assay cell line; format: cell-based, human; details: for percentage of cells with punctate EGFP-Torsin1a signal, WT cell line: single concentration: MG132 10 μM, PBA 20 mM
Excerpt: To develop an assay capable of detecting conditions that correct a dystonia cellular phenotype, two human cell lines were generated that stably expressed EGFP-tagged human wild-type Torsin 1A, or delta-E Torsin1a, from a single cDNA copy integrated at a defined genomic site (FIG. 1, panel 1).
To limit variation in expression levels associated with random integration or transient expression, single copies of either WT or delta-E human TOR1A cDNAs with N-terminal EGFP fusions were inserted at the FRT site in Flp-In™ T-Rex™ 293 cells (Thermo Fisher Scientific #R780-07) via flippase recombinase-mediated cassette exchange according to the manufacturer's recommended protocols. This system includes an inducible expression feature (TetON) that avoids selective pressure for potential toxic effects of chronic expression of mutant proteins (FIG. 1, panel 1).
Flp-In T-Rex 293 cells inducibly expressing either WT or delta-E Torsin1a were maintained in selective media [DMEM-HG (Thermo Fisher Scientific #11965)+1× GlutaMax (Thermo Fisher Scientific #35050-061)+75 μg/mL hygromycin (Thermo Fisher Scientific #10687-010)+15 μg/mL blasticidin S (Thermo Fisher Scientific #R210-01)+10% tetracycline screened FBS (Hyclone #SH30070.03T)+1% penicillin/streptomycin/amphotericin (Mediatech Inc. #30-004-C)]. The cells were maintained at 37° C./5% CO2. All experiments were performed on cells with fewer than 5 passages. HEK 293T cells (ATCC #CRL-3216) were maintained in HEK-T media [DMEM (Thermo Fisher #11995)+10% FBS (Hyclone #SH30070.03)+1× GlutaMAX+1% penicillin/streptomycin/amphotericin] at 37° C./5% CO2. Human dermal fibroblast lines were maintained in FGM media [MEM (Thermo Fisher #11095-080)+15% FBS (Hyclone #SH30070.03)+1% Non-Essential Amino Acids (Lonza #13-114E)+1% penicillin/streptomycin/amphotericin] at 37° C./5% CO2.
This approach provides control over expression levels, avoiding the wide variation typically seen with random genomic integration or transient expression approaches. […] The mutant phenotype was measured as the percentage of cells with one or more EGFP puncta using automated high-content imaging analysis (see infra).
Development and validation of the high-content image analysis and assay performance under high-throughput screening conditions is presented in FIG. 9. […] Automated exposure times for each plate were determined by setting a target saturation of 25% in channel 1 in wells containing tetracycline-induced delta-E cells. Detected cells were gated according to nuclear area, length-to-width ratio, and perimeter-to-area ratio. […] EGFP fluorescence (Ch2: excitation 488 nm; emission 509 nm) was used for puncta detection. Automated exposure times for each plate were determined by setting a target saturation of 35% in channel 2 in wells containing induced delta-E cells. […]

[2] = system: delta-E Torsin1a localization; assay: Delta-E Torsin1a mislocalization assay (% cells with EGFP puncta, high-content imaging); format: cell-based, human; details: single concentration: MG132 10 μM, PBA 20 mM
striatal mGluR5 LTD [3] = assay: Long-term depression in cortico-striatal synapse, brain slices of heterozygous DYT1 knockin mice; format: cell-based; details: 20 μM, versus vehicle
Method: as §1, §2, §3

SMILES | percentage of cells with punctate EGFP-Torsin1a signal, delta-E cell line [2] | percentage of cells with punctate EGFP-Torsin1a signal, WT cell line (WT Torsin1a localization) | also measured
O=C(COc1ccc(Cl)cc1)NC1CCC(NC(=O)COc2ccc(Cl)cc2)CC1 (centres unmarked) [ISRIB] |  |  | effect on LTD in WT brain slices (striatal mGluR5 LTD [1]): robustly inhibited LTD; Torsin1a expression levels, in words (WT Torsin1a localization; WT cell line): without effects on Torsin1a expression levels; effect on WT Torsin1a localization (cells with puncta), in words (WT Torsin1a localization; dose response, WT cell line): dose-dependent increase in cells with punctate Torsin1a localization
O=C(O)CCCc1ccccc1 [PBA, phenylbutyric acid] | ameliorated the burden of cells with punctate pathology | ameliorated the burden of cells with punctate pathology | 
CC(C)C[C@@H](C=O)NC(=O)[C@H](CC(C)C)NC(=O)[C@H](CC(C)C)NC(=O)OCc1ccccc1 [MG132] (Cbz-Leu-Leu-Leu-aldehyde) | significantly increased | significantly increased | 
O=C(/C=C/c1ccccc1)NC(NC(=S)Nc1ccc(Cl)cc1)C(Cl)(Cl)Cl (centres unmarked) [Sal-003] |  |  | effect on LTD in brain slices heterozygous for the DYT1 knockin mutation (delGAG) (striatal mGluR5 LTD [3]): restored long-term depression

— patent US11529343B2, “Compositions and methods for identifying and treating dystonia disorders” (DUKE UNIVERSITY, priority 2015, dated 2022)
